The text below walks through data of patent US20240352046A1, “ECTONUCLEOTIDE PYROPHOSPHATASE-PHOSPHODIESTERASE-1 (ENPP1) INHIBITORS AND USES THEREOF” (1cBio, Inc., priority 2020, published 2024).

ENPP-1 (Ectonucleotide Pyrophosphatase/Phosphodiesterase 1), sequence (P22413 whole entry): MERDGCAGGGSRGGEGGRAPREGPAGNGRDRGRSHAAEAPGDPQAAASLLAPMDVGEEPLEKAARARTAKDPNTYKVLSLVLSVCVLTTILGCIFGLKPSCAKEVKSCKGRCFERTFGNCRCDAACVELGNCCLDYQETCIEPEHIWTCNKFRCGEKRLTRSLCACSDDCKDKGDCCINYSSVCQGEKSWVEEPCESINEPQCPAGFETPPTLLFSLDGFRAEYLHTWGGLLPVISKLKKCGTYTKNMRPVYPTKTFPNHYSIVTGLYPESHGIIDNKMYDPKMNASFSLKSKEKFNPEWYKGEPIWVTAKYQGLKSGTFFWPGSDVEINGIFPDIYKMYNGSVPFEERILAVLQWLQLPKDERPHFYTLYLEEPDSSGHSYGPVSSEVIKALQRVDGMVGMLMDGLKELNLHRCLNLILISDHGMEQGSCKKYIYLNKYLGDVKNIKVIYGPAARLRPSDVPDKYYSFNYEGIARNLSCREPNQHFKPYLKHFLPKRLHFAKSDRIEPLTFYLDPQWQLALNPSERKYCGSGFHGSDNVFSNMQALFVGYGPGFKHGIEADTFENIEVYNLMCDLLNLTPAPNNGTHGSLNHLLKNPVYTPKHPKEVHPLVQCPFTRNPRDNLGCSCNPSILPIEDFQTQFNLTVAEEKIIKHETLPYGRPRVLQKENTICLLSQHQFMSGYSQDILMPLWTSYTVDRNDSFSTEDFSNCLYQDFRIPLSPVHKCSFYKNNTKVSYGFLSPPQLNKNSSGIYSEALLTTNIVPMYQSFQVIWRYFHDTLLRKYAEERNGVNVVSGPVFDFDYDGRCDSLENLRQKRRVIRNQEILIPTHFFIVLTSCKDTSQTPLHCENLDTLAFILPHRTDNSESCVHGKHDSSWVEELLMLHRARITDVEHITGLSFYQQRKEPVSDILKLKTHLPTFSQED

This experiment deals with ENPP-1 (Ectonucleotide Pyrophosphatase/Phosphodiesterase 1) (Homo sapiens (Human), UniProt P22413). Briefly: ENPP1 inhibition assay (AMP Glo, cGAMP substrate). In kind it is biochemical. As to conditions: cGAMP 20 μM substrate, ENPP1 1 nM. The procedure:
IC50 values of compounds against ENPP-1 (Ectonucleotide Pyrophosphatase/Phosphodiesterase 1) were determined at Integral BioSciences (India) using AMP Glo (Promega, Cat #V5011). Assay was performed in a 30 μL final volume in a white 96-well Half Area plate (Costar,Cat #3693). Dose response curve for the compounds were prepared in duplicates with starting conc. at 5 μM and a three-fold titration was performed. The reaction buffer consisted of 50 mM Tris (pH 8.0), 0.5 mM CaCl2), 1 μM ZnCl2, 250 mM NaCl and 0.1 mg/ml BSA. To the compound dilution, 15 μL of ENPP1 enzyme (R&D Systems; Cat #6136-EN-010) was added to each well (final conc. 1 nM) and the mix was pre-incubated for 15 min at RT. An equal volume (15 μL) containing cGAMP (Sigma, Cat #SML-1229) (final conc. 20 μM) was added to initiate the enzyme reaction and the reaction was incubated for 30 min at RT. The reaction was then stopped by heating at 90° C. for 3 minutes. 10 μl of reaction was then transferred to 384 well white, medium binding plates (Grenier, Cat #781075) to which 10 μl of AMP-Glo Reagent 1 was added and mixed well and incubated for 1 hour at 25° C. Following 60 min incubation, 20 μL of detection mixture was added to the enzyme reaction bringing the final volume to 40 μL. The reaction was further incubated for 60 min at RT after which the plates were read using BioTek Plate reader.
Analysis was done using the standard curve by non-linear regression, variable slope inhibitor curve fits (Graph-Pad Prism) and IC50's of compounds were determined wherever possible.
`Cc1cc(Cl)n2nc(C(F)F)nc(N3CC4(CC(N(C)S(N)(=O)=O)C4)C3)c12` [Compound 1.90] gave an IC50 of over 3 µM.

`Cc1cc(C#N)n2ncnc(N3CC4(CC(N(C)S(N)(=O)=O)C4)C3)c12` [Compound 1.91, N-(2-(6-cyano-5-methylpyrrolo[1,2-f][1,2,4]triazin-4-yl)-2-azaspiro[3.3]heptan-6-yl)-N-methylsulfamamide] registered an IC50 of over 3 µM.

For the compound `Cc1cc(Cl)n2ncnc(N3CC(CCN(C4CC4)S(N)(=O)=O)C3)c12` [Compound 1.92, N-(2-(1-(7-chloro-5-methylpyrrolo[2,1-f][1,2,4]triazin-4-yl)azetidin-3-yl)ethyl)-N-cyclopropylsulfamamide], half-maximal inhibition (IC50) required 1.51 µM.

The compound `Cc1cc(Cl)n2ncnc(N3CC4(CC(N(CCC(F)(F)F)S(N)(=O)=O)C4)C3)c12` [Compound 1.93, N-(2-(7-chloro-5-methylpyrrolo[2,1-f][1,2,4]triazin-4-yl)-2-azaspiro[3.3]heptan-6-yl)-N-(3,3,3-trifluoropropyl)sulfamamide] returned an IC50 of 0.019 µM.

`Cc1cc(Cl)n2ncnc(N3CC(CCN(C4CCC4)S(N)(=O)=O)C3)c12` [Compound 1.94, N-(2-(1-(7-chloro-5-methylpyrrolo[2,1-f][1,2,4]triazin-4-yl)azetidin-3-yl)ethyl)-N-cyclobutylsulfamamide] registered an IC50 of over 3 µM.

In the case of `CCCN(CCC1CN(c2ncnn3c(Cl)cc(C)c23)C1)S(N)(=O)=O` [Compound 1.95, N-(2-(1-(7-chloro-5-methylpyrrolo[2,1-f][1,2,4]triazin-4-yl)azetidin-3-yl)ethyl)-N-propylsulfamamide], 1.88 µM corresponded to half-maximal inhibition (IC50).

Compound `CN(C1CC2(C1)CN(c1nc(Cl)nc3c1cnn3C)C2)S(N)(=O)=O` [Compound 1.96, N-(2-(6-chloro-1-methyl-1H-pyrazolo[3,4-d]pyrimidin-4-yl)-2-azaspiro[3.3]heptan-6-yl)-N-methylsulfamamide] displayed a 50% inhibitory concentration (IC50) of over 3 µM.

With `CCCN(C1CC2(C1)CN(c1ncnn3c(Cl)cc(C)c13)C2)S(N)(=O)=O` [Compound 1.97, N-(2-(7-chloro-5-methylpyrrolo[2,1-f][1,2,4]triazin-4-yl)-2-azaspiro[3.3]heptan-6-yl)-N-propylsulfamamide], it took 0.036 µM to reach half-maximal inhibition (IC50).

Regarding `CCN(C1CC2(C1)CN(c1ncnn3c(Cl)cc(C)c13)C2)S(N)(=O)=O` [Compound 1.98, N-(2-(7-chloro-5-methylpyrrolo[2,1-f][1,2,4]triazin-4-yl)-2-azaspiro[3.3]heptan-6-yl)-N-ethylsulfamamide], half-maximal inhibition (IC50) required 0.055 µM.

`Cc1cc(Cl)n2ncnc(N3CC4(CC(N(CC(F)F)S(N)(=O)=O)C4)C3)c12` [Compound 1.99, N-(2-(7-chloro-5-methylpyrrolo[2,1-f][1,2,4]triazin-4-yl)-2-azaspiro[3.3]heptan-6-yl)-N-(2,2-difluoroethyl)sulfamamide] registered a half-inhibitory concentration (IC50) of 0.01 µM.

In turn, `CN(C1CC2(C1)CN(c1ncnc3scc(-c4ccccc4)c13)C2)S(N)(=O)=O` [Compound 1.100, N-methyl-N-(2-(5-phenylthieno[2,3-d]pyrimidin-4-yl)-2-azaspiro[3.3]heptan-6-yl)sulfamamide] displayed an IC50 of over 3 µM.

Turning to `Cc1cc(Cl)n2nc(C(C)C)nc(N3CC4(CC(N(C)S(N)(=O)=O)C4)C3)c12` [Compound 1.101, N-(2-(7-chloro-2-isopropyl-5-methylpyrrolo[1,2-f][1,2,4]triazin-4-yl)-2-azaspiro[3.3]heptan-6-yl)-N-methylsulfamide], the IC50 is over 3 µM.

The compound `CCCN(C1CC2(C1)CN(c1nc(C)nn3c(Cl)cc(C)c13)C2)S(N)(=O)=O` [Compound 1.103, N-(2-(7-chloro-2,5-dimethylpyrrolo[1,2-f][1,2,4]triazin-4-yl)-2-azaspiro[3.3]heptan-6-yl)-N-propylsulfatamide] displayed an IC50 of 0.59 µM.

`CN(C1CC2(C1)CN(c1ncnc3c1cnn3C)C2)S(N)(=O)=O` [Compound 1.105, N-methyl-N-(2(1-methyl-1H-pyrazolo[3,4-d]pyrimidin-4-yl)-2-azaspiro[3.3]heptan-6-yl)sulfamamide] yielded an IC50 of 0.091 µM.

`Cc1cc(Cl)n2nc(-c3ccc(F)cc3)nc(N3CC4(CC(N(C)S(N)(=O)=O)C4)C3)c12` [Compound 1.106, N-(2-(7-chloro-2-(4-fluorophenyl)-5-methylpyrrolo[2,1-f][1,2,4]triazin-4-yl)-2-azaspiro[3.3]heptan-6-yl)-N-methylsulfamamide] yielded an IC50 of over 3 µM.

`CN(C1CC2(C1)CN(c1nc(N)nc3[nH]cnc13)C2)S(N)(=O)=O` [Compound 1.108, N-(2-(2-amino-9H-purin-6-yl)-2-azaspiro[3.3]heptan-6-yl)-N-methylsulfamamide] yielded an IC50 of over 3 µM.

The compound `Cc1cc(Cl)n2ncnc(N3CC4(CC(N(Cc5ccc(C(F)(F)F)cc5)S(N)(=O)=O)C4)C3)c12` [Compound 1.109, N-(2-(7-chloro-5-methylpyrrolo[2,1-f][1,2,4]triazin-4-yl)-2-azaspiro[3.3]heptan-6-yl)-N-(4-(trifluoromethyl)benzyl)sulfamamide] returned an IC50 of 0.189 µM.

`Cc1cc(Cl)n2ncnc(N3CC4(CC(N(C5CCCC5)S(N)(=O)=O)C4)C3)c12` [Compound 1.110, N-(2-(7-chloro-5-methylpyrrolo[2,1-f][1,2,4]triazin-4-yl)-2-azaspiro[3.3]heptan-6-yl)-N-cyclopentylsulfamamide] showed an IC50 of 0.395 µM.

The compound `Cc1cc(Cl)n2ncnc(N3CC4(CC(N(C5CCC5)S(N)(=O)=O)C4)C3)c12` [Compound 1.111, N-(2-(7-chloro-5-methylpyrrolo[2,1-f][1,2,4]triazin-4-yl)-2-azaspiro[3.3]heptan-6-yl)-N-cyclobutylsulfamamide] had an IC50 of 0.398 µM.

`Cc1cc(Cl)n2ncnc(N3CC4(CC(N(Cc5ccccc5)S(N)(=O)=O)C4)C3)c12` [Compound 1.112, N-benzyl-N-(2-(7-chloro-5-methylpyrrolo[2,1-f][1,2,4]triazin-4-yl)-2-azaspiro[3.3]heptan-6-yl)sulfamamide] yielded an IC50 of 0.141 µM.

In turn, `Cc1cc(Cl)n2ncnc(N3CC4(CC(N(CC(C)(C)C)S(N)(=O)=O)C4)C3)c12` [Compound 1.113, N-(2-(7-chloro-5-methylpyrrolo[2,1-f][1,2,4]triazin-4-yl)-2-azaspiro[3.3]heptan-6-yl)-N-neopentylsulfamamide] returned a half-inhibitory concentration (IC50) of 0.169 µM.

The compound `CCCCN(C1CC2(C1)CN(c1ncnn3c(Cl)cc(C)c13)C2)S(N)(=O)=O` [Compound 1.114, N-butyl-N-(2-(7-chloro-5-methylpyrrolo[2,1-f][1,2,4]triazin-4-yl)-2-azaspiro[3.3]heptan-6-yl)sulfamamide] gave an IC50 of 0.039 µM.

Compound `Cc1cc(Cl)n2ncnc(N3CC4(CC(N(CC5CC5)S(N)(=O)=O)C4)C3)c12` [Compound 1.115, N-(2-(7-chloro-5-methylpyrrolo[2,1-f][1,2,4]triazin-4-yl)-2-azaspiro[3.3]heptan-6-yl)-N-(cyclopropylmethyl)sulfamamide] registered a 50% inhibitory concentration (IC50) of 0.051 µM.

With `Cc1cc(Cl)n2ncnc(N3CC4(CC(N(CC5CCC5)S(N)(=O)=O)C4)C3)c12` [Compound 1.116, N-(2-(7-chloro-5-methylpyrrolo[2,1-f][1,2,4]triazin-4-yl)-2-azaspiro[3.3]heptan-6-yl)-N-(cyclobutylmethyl)sulfamide], it took 0.069 µM to reach half-maximal inhibition (IC50).

Take `Cc1cc(Cl)n2ncnc(N3CC4(CC(N(CC5CCCCC5)S(N)(=O)=O)C4)C3)c12` [Compound 1.117, N-(2-(7-chloro-5-methylpyrrolo[2,1-f][1,2,4]triazin-4-yl)-2-azaspiro[3.3]heptan-6-yl)-N-(cyclohexylmethyl)sulfamide]: half-maximal inhibition (IC50) was put at 0.239 µM.

For the compound `Cc1cc(Cl)n2ncnc(N3CC4(CC(N(CC5CCC(F)(F)CC5)S(N)(=O)=O)C4)C3)c12` [Compound 1.118, N-(2-(7-chloro-5-methylpyrrolo[2,1-f][1,2,4]triazin-4-yl)-2-azaspiro[3.3]heptan-6-yl)-N-((4,4-difluorocyclohexyl)methyl)sulfamamide], the IC50 turned out to be 0.072 µM.

Take `Cc1cc(Cl)n2ncnc(N3CC4(CC(N(CC5CCC(C(F)(F)F)CC5)S(N)(=O)=O)C4)C3)c12` (centres unmarked) [Compound 1.119, N-(2-(7-chloro-5-methylpyrrolo[2,1-f][1,2,4]triazin-4-yl)-2-azaspiro[3.3]heptan-6-yl)-N-((4-(trifluoromethyl)cyclohexyl)methyl)sulfamamide]: 0.218 µM corresponded to half-maximal inhibition (IC50).

As to `Cc1cc(Cl)n2ncnc(N3CC4(CC(N(CC(O)C(F)(F)F)S(N)(=O)=O)C4)C3)c12` (centres unmarked) [Compound 1.120, N-(2-(7-chloro-5-methylpyrrolo[2,1-f][1,2,4]triazin-4-yl)-2-azaspiro[3.3]heptan-6-yl)-N-(3,3,3-trifluoro-2-hydroxypropyl)sulfamamide], the IC50 is 0.018 µM.

For `Cn1ncc2c(N3CC4(CC(N(CC(F)F)S(N)(=O)=O)C4)C3)ncnc21` [Compound 1.121, N-(2,2-difluoroethyl)-N-(2-(1-methyl-1H-pyrazolo[3,4-d]pyrimidin-4-yl)-2-azaspiro[3.3]heptan-6-yl)sulfamamide], the IC50 came out at 0.565 µM.
